Key:
Settings in all cases: incubation time: 72 h
MDA-MB-436 [1] = assay: normalised response (% of control), CellTox Green; higher = less cell death (100 = DMSO, 0 = benzethonium chloride kill control)
Procedure, shortened: (§1)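 CellTox Green fluorescence (485/520 nm) and, after 10 min at room temperature, CellTiter-Glo luminescence were read from breast cancer cell lines incubated 72 h in 384-well plates. Cells were seeded as 20 µl suspension onto compound at 5 concentrations in 10-fold steps over a 10,000-fold range chosen per compound. Each plate was normalised to 0.1 % DMSO (100) and a positive kill control (0). Values are normalised signals, one per concentration.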

MFM-223 [2] = assay: as above
Procedure, shortened: as §1

BT-474 [3] = assay: as above
Procedure, shortened: as §1

Hs578T [4] = assay: as above
Procedure, shortened: as §1

MCF-10A [5] = assay: as above
Procedure, shortened: as §1

CAL-51 [6] = assay: as above
Procedure, shortened: as §1

HCC1599 [7] = assay: as above
Procedure, shortened: as §1

CAL-148 [8] = assay: as above
Procedure, shortened: as §1

MDA-MB-468 [9] = assay: as above
Procedure, shortened: as §1

MDA-MB-231 [10] = assay: as above
Procedure, shortened: as §1

HDQ-P1 [11] = assay: as above
Procedure, shortened: as §1

HCC1143 [12] = assay: as above
Procedure, shortened: as §1

CAL-85-1 [13] = assay: as above
Procedure, shortened: as §1

DU-4475 [14] = assay: as above
Procedure, shortened: as §1

HCC1937 [15] = assay: as above
Procedure, shortened: as §1

BT-549 [16] = assay: as above
Procedure, shortened: as §1

CAL-120 [17] = assay: as above
Procedure, shortened: as §1

MDA-MB-453 [18] = assay: as above
Procedure, shortened: as §1

MDA-MB-436 [19] = assay: normalised response (% of control), CellTiter-Glo; higher = more viable cells (100 = DMSO, 0 = benzethonium chloride kill control)
Procedure, shortened: as §1

MFM-223 [20] = assay: as above
Procedure, shortened: as §1

BT-474 [21] = assay: as above
Procedure, shortened: as §1

Hs578T [22] = assay: as above
Procedure, shortened: as §1

MCF-10A [23] = assay: as above
Procedure, shortened: as §1

CAL-51 [24] = assay: as above
Procedure, shortened: as §1

HCC1599 [25] = assay: as above
Procedure, shortened: as §1

CAL-148 [26] = assay: as above
Procedure, shortened: as §1

MDA-MB-468 [27] = assay: as above
Procedure, shortened: as §1

MDA-MB-231 [28] = assay: as above
Procedure, shortened: as §1

SK-BR-3 = assay: as above
Procedure, shortened: as §1

HDQ-P1 [29] = assay: as above
Procedure, shortened: as §1

HCC1143 [30] = assay: as above
Procedure, shortened: as §1

CAL-85-1 [31] = assay: as above
Procedure, shortened: as §1

DU-4475 [32] = assay: as above
Procedure, shortened: as §1

HCC1937 [33] = assay: as above
Procedure, shortened: as §1

BT-549 [34] = assay: as above
Procedure, shortened: as §1

CAL-120 [35] = assay: as above
Procedure, shortened: as §1

MDA-MB-453 [36] = assay: as above
Procedure, shortened: as §1

SMILES | normalised response (MDA-MB-436 [1]) | normalised response (MFM-223 [2]) | normalised response (BT-474 [3]) | normalised response (Hs578T [4]) | normalised response (MCF-10A [5]) | normalised response (CAL-51 [6]) | normalised response (HCC1599 [7]) | normalised response (CAL-148 [8]) | normalised response (MDA-MB-468 [9]) | normalised response (MDA-MB-231 [10]) | normalised response (HDQ-P1 [11]) | normalised response (HCC1143 [12]) | normalised response (CAL-85-1 [13]) | normalised response (DU-4475 [14]) | normalised response (HCC1937 [15]) | normalised response (BT-549 [16]) | normalised response (CAL-120 [17]) | normalised response (MDA-MB-453 [18]) | normalised response (MDA-MB-436 [19]) | normalised response (MFM-223 [20]) | normalised response (BT-474 [21]) | normalised response (Hs578T [22]) | normalised response (MCF-10A [23]) | normalised response (CAL-51 [24]) | normalised response (HCC1599 [25]) | normalised response (CAL-148 [26]) | normalised response (MDA-MB-468 [27]) | normalised response (MDA-MB-231 [28]) | normalised response (SK-BR-3) | normalised response (HDQ-P1 [29]) | normalised response (HCC1143 [30]) | normalised response (CAL-85-1 [31]) | normalised response (DU-4475 [32]) | normalised response (HCC1937 [33]) | normalised response (BT-549 [34]) | normalised response (CAL-120 [35]) | normalised response (MDA-MB-453 [36])
COc1ccccc1S(=O)(=O)Nc1ccc2c(c1)CN(C)C(=O)N2 [PFI-1] (1000 nM) | 115% | 87.8% | 98.7% | 98.2% | 105% | 116% | 110% | 103% | 140% | 105% | 109% | 95% | 121% | 107% | 91.9% | 111% | 111% | 121% | 93.9% | 97.8% | 89.8% | 85% | 98.6% | 87.7% | 86.7% | 107% | 95% | 89.2% | 103% | 91.9% | 94.1% | 87% | 97.7% | 90.9% | 76.9% | 91.3% | 91.1%
C/C(=C\c1csc(C)n1)[C@@H]1C[C@@H]2O[C@]2(C)CCC[C@H](C)[C@H](O)[C@@H](C)C(=O)C(C)(C)[C@@H](O)CC(=O)O1 [Patupilone] (100 nM) | 40.1% | 84.1% | 58.5% | 96.1% | 77.1% | 36.3% | 95.6% | 50.5% | -2.53% | 65.7% | 71.9% | 103% | 38.6% | 94.5% | 81.2% | 90.3% | 77.9% | 93.6% | 35.4% | 86.8% | 75.1% | 39.6% | 61.4% | 24.4% | 102% | 37.4% | 26.2% | 73% | 17.4% | 74.6% | 42.8% | 25.8% | 72.4% | 75.9% | 16.3% | 71.4% | 71.8%
NS(=O)(=O)OC[C@@H]1C[C@@H](n2ccc3c(N[C@H]4CCc5ccccc54)ncnc32)C[C@@H]1O [Pevonedistat] (1000 nM) | 80.8% | 102% | 101% | 85% | 115% | -16% | 95% | 104% | 49.4% | 106% | 104% | 96.1% | 86.6% | 76.2% | 72.7% | 85% | 96.4% | 99.4% | 34.6% | 59.5% | 63.6% | 73.2% | 107% | 21.2% | 40% | 118% | 33% | 71% | 35.5% | 89.3% | 61.2% | 49.9% | 0.82% | 83.3% | 34.6% | 61.9% | 80.6%

Source: the supplement of paper PMC4862054
